{"source": "paper PMC5404532", "about": "“Simplified Reversed Chloroquines To Overcome Malaria Resistance to Quinoline-Based Drugs” (Antimicrobial Agents and Chemotherapy, 2017)", "origin": "cited, not measured here", "key": {"P. falciparum Dd2 (CQR)": {"system": "P. falciparum Dd2 (CQR)", "conditions": "cited from earlier work"}, "P. falciparum D6 (CQS)": {"system": "P. falciparum D6 (CQS)", "conditions": "cited from earlier work"}, "mouse spleen lymphocytes": {"system": "mouse spleen lymphocytes", "conditions": "cited from earlier work"}, "P. falciparum 7G8 (CQR)": {"system": "P. falciparum 7G8 (CQR)", "conditions": "CQR 7G8, cited from earlier work"}}, "note": "Like-named read-outs stand apart in the source and are kept apart here.", "data": [{"smiles": "Clc1ccc2c(NCCCN3CCN(C(c4ccccc4)c4ccccc4)CC3)ccnc2c1", "note": "[Compound 3]", "values": [{"measurement": "IC50", "setting": "P. falciparum Dd2 (CQR); ref Burgess et al. (33)", "result": 2.6, "unit": "nM"}, {"measurement": "IC50", "setting": "P. falciparum D6 (CQS); ref Burgess et al. (33)", "result": 1.9, "unit": "nM"}, {"measurement": "Cytotoxicity", "setting": "mouse spleen lymphocytes; ref Burgess et al. (33)", "result": "1,100 nM"}, {"measurement": "IC50", "setting": "P. falciparum 7G8 (CQR); ref Burgess et al. (33)", "result": 11, "unit": "nM"}]}, {"smiles": "CN(CCCNc1ccnc2cc(Cl)ccc12)CCCN1c2ccccc2CCc2ccccc21", "note": "[Compound 1]", "values": [{"measurement": "IC50", "setting": "P. falciparum Dd2 (CQR); ref Burgess et al. (31)", "result": 5.3, "unit": "nM"}, {"measurement": "IC50", "setting": "P. falciparum D6 (CQS); ref Burgess et al. (31)", "result": 2.9, "unit": "nM"}, {"measurement": "Cytotoxicity", "setting": "mouse spleen lymphocytes; ref Burgess et al. (31)", "result": 700, "unit": "nM"}, {"measurement": "IC50", "setting": "P. falciparum 7G8 (CQR); ref Burgess et al. (31)", "result": 4, "unit": "nM"}]}, {"smiles": "O=C(CNCCNc1ccnc2cc(Cl)ccc12)N(Cc1ccccc1)Cc1ccccc1", "note": "[Compound 2]", "values": [{"measurement": "IC50", "setting": "P. falciparum Dd2 (CQR); ref Andrews et al. (32)", "result": 16, "unit": "nM"}, {"measurement": "IC50", "setting": "P. falciparum D6 (CQS); ref Andrews et al. (32)", "result": 14, "unit": "nM"}, {"measurement": "Cytotoxicity", "setting": "mouse spleen lymphocytes; ref Andrews et al. (32)", "result": "62,000 nM"}]}]}
